Patent US8506927B2, “Pegylated fluorobenzamide analogues, their synthesis and use in diagnostic imaging” (Washington University, priority 2011, dated 2013)

Assays:
[1] = target: T1, σ1 receptor (Cavia porcellus, UniProt Q60492); assay: σ1 receptor binding assay, [3H](+)-pentazocine competition; conditions: guinea pig brain membrane homogenates, ~5 nM [3H](+)-pentazocine; mean ± SEM; read-out: σ1 binding affinity (Ki)
T1 construct: using guinea pig brain membrane homogenates (˜300 μg protein); from tissue; host or cells: guinea pig brain membrane homogenate
T1 sequence (Q60492 whole entry): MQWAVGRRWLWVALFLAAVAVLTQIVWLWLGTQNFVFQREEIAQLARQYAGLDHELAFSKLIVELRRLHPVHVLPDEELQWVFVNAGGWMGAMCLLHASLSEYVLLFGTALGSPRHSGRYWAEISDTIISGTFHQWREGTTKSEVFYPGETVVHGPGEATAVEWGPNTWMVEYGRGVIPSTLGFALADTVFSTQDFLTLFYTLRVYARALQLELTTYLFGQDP
Experimental: (§1) This example illustrates in vitro binding studies with the compounds of the present teachings. In this example, in vitro binding studies can be conducted in order to measure the affinity of the target compounds for σ1 and σ2 receptors.
(§2) In these assays, pegylated sigma ligands of the present teachings can be dissolved in N,N-dimethylformamide (DMF), DMSO or ethanol, and can then be diluted in 50 mM Tris-HCl buffer containing 150 mM NaCl and 100 mM EDTA at pH 7.4 prior to performing σ1 and σ2 receptor binding assays Procedures for isolating the membrane homogenates and performing the σ1 and σ2 receptor binding assays have been described in detail previously (Xu, J., et al., Eur. J. Pharmacol. […] (1-3): 8-17, 2005). Briefly, the σ1 receptor binding assays can be conducted in 96-well plates using guinea pig brain membrane homogenates (˜300 μg protein) and ˜5 nM [^3H](+)-pentazocine (34.9 Ci/mmol, Perkin Elmer, Boston, Mass.). The total incubation time can be 90 min at room temperature. Nonspecific binding can be determined from samples that contain 10 μM of cold haloperidol. After 90 min, the reaction can be terminated by the addition of 150 μL of ice-cold wash buffer (10 mM Tris-HCl, 150 mM NaCl, pH 7.4) using a 96 channel transfer pipette (Fisher Scientific, Pittsburgh, Pa.). The samples can be harvested and filtered rapidly through a 96-well fiber glass filter plate (Millipore, Billerica, Mass.) that has been presoaked with 100 μL of 50 mM Tris-HCl buffer at pH 8.0 for 1 h. Each filter can be washed 3 times with 200 μL of ice-cold wash buffer, and the filter can be counted in a Wallac 1450 MicroBeta liquid scintillation counter (Perkin Elmer, Boston, Mass.).
(§3) Data from the competitive inhibition experiments can be modeled using nonlinear regression analysis to determine the concentration that inhibits 50% of the specific binding of the radioligand (IC50 value). Competitive curves can be best fit to a one-site fit and give pseudo-Hill coefficients of 0.6-1.0. Ki values can be calculated using the method of Cheng and Prusoff (Biochem. Pharmacol. 22: 3099-3108, 1973) and can be presented as the mean±1 SEM. For these calculations, one can use a Kd value of 7.89 nM for [^3H](+)-pentazocine and guinea pig brain; for [^3H]DTG and rat liver, for example 30.73 nM.

[2] = target: T2, σ2 receptor (Rattus norvegicus, UniProt Q5U3Y7); assay: σ2 receptor binding assay, [3H]DTG competition in the presence of (+)-pentazocine; conditions: for Ki: rat liver membrane homogenates, ~5 nM [3H]DTG with 1 μM (+)-pentazocine, mean ± SEM, read-out: σ2 binding affinity (Ki); for Ratio (σ1/σ2): ratio of Ki σ1 to Ki σ2
T2 construct: using rat liver membrane homogenates (˜300 μg protein); from tissue; host or cells: rat liver membrane homogenate
T2 sequence (Q5U3Y7 1-176): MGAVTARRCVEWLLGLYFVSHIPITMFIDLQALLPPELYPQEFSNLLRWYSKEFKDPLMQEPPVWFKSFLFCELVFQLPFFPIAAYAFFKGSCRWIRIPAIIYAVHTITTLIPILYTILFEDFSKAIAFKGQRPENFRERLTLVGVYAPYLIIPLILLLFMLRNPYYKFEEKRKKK
Experimental: as §1, §2
σ2 receptor binding assays can be conducted using rat liver membrane homogenates (˜300 μg protein) and ˜5 nM [^3H]DTG (58.1 Ci/mmol, Perkin Elmer, Boston, Mass.) in the presence of 1 μM (+)-pentazocine. The incubation time can be […] at room temperature. Nonspecific binding can be determined from samples that contain 10 μM of cold haloperidol. All other procedures can be identical to those described for the σ1 receptor binding assay above.
as §3

[3] = tested on: EMT-6 mouse mammary adenocarcinoma tumor; assay: Biodistribution / tumor uptake of 18F-labeled compounds in tumor-bearing mice; format: in vivo; conditions: EMT-6 tumor-bearing female Balb/c mice, versus non-pegylated analog (m=1; X1=H; X2=Br), FIG. 2
Experimental: This example illustrates in vivo evaluation of compounds of the present teachings. All animal experiments can be conducted in compliance with the Guidelines for the Care and Use of Research Animals established by Washington University's Animal Studies Committee. EMT-6 mouse mammary adenocarcinoma cells (5×10^5 cells in 100 uL of phosphate-buffered saline) can be implanted subcutaneously in the scapular region of female Balb/c mice (˜2-month old and 17-22 g; Charles River Laboratories). The biodistribution studies can be initiated 7-10 days after implantation when the tumor size can be ˜0.2 cm^3 (˜200 mg).
For biodistribution studies, 10-120 μCi of an [^18F]-radiolabeled pegylated compound of the present teachings in 100-150 uL of saline can be injected via the tail vein into EMT-6 tumor-bearing female Balb/c mice. Groups of at least 4 mice can be used for each time point. At 5, 30, 60, and 120 min after injection, the mice can be euthanized, and samples of blood, lung, liver, kidney, muscle, fat, heart, brain, bone and tumor can be removed, weighed and counted in a Beckman Gamma 8000 well counter. After counting, the percentage of the injected dose per gram of tissue (% ID/g) can be calculated. The tumor/organ ratios can be calculated by dividing the % ID/g of the tumor by the % ID/g of each organ.
This example illustrates tumor uptake of ^18F-labeled pegylated compounds 6c, 6d and 6g versus a nonpegylated analog (m=1; X1=H; X2=Br).
In these experiments, various ^18F-labeled pegylated compounds of the present teachings as well as a non-pegylated analog were administered to tumor-bearing mice as described in Example 22. The pegylated compounds tested,
[drawing 27] were 6c (m=2; X1=H; X2=Br), 6d (m=3; X1=H; X2=Br) and 6g (m=2; X1=OCH3; X2=Br). A non-pegylated analog (m=1; X1=H; X2=Br) was also tested.

[4] = target: σ2 receptors (Homo sapiens, UniProt Q5BJF2); conditions: stated in words with literature references; cited from earlier work
σ2 receptors, sequence (Q5BJF2 whole entry): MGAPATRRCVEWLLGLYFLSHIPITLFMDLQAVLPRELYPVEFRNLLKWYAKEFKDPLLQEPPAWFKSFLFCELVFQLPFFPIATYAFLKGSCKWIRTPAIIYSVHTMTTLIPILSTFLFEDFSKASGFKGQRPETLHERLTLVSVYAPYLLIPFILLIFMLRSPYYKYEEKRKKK

[5] = target: σ1 receptors (Homo sapiens, UniProt Q99720); conditions: stated in words with literature references; cited from earlier work
σ1 receptors, sequence (Q99720 whole entry): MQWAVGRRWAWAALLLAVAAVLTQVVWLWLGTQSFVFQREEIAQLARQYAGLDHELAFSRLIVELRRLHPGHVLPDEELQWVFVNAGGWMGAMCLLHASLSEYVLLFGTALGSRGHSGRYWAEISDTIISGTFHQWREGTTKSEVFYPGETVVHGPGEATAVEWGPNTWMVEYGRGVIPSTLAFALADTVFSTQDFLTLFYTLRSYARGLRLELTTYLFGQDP

| Ki [1] [nM] | Ki [2] [nM] | Ratio (σ1/σ2) [2] | rate of washout [3] | SMILES | tumor uptake [3] | affinity for σ2 receptors [4] | affinity for σ1 receptors [5] |
| --- | --- | --- | --- | --- | --- | --- | --- |
| 277 ± 38 | 6.75 ± 0.9 | 41 |  | COc1cc2c(cc1OC)CN(CCCCNC(=O)c1cc(C)ccc1OCCOCCF)CC2 [6a, N-(4-(6,7-dimethoxy-3,4-dihydroisoquinolin-2(1H)-yl)butyl)-2-(2-(2-fluoroethoxy)ethoxy)-5-methylbenzamide] |  |  |  |
| 1920 | 10.1 ± 0.4 | 190 |  | COc1cc2c(cc1OC)CN(CCCCNC(=O)c1cc(C)ccc1OCCOCCOCCF)CC2 [6b, N-(4-(6,7-dimethoxy-3,4-dihydroisoquinolin-2(1H)-yl)butyl)-2-(2-(2-(2-fluoroethoxy)ethoxy)ethoxy)-5-methylbenzamide] |  |  |  |
| 1040 | 1.38 ± 0.2 | 755 | slower rate of washout | COc1cc2c(cc1OC)CN(CCCCNC(=O)c1cc(Br)ccc1OCCOCCF)CC2 [6c, 5-Bromo-N-(4-(6,7-dimethoxy-3,4-dihydroisoquinolin-2(1H)-yl)butyl)-2-(2-(2-fluoroethoxy)ethoxy)benzamide] | higher tumor uptake compared to the non-pegylated analog |  |  |
| 1010 | 9.8 ± 0.4 | 103 | slower rate of washout | COc1cc2c(cc1OC)CN(CCCCNC(=O)c1cc(Br)ccc1OCCOCCOCCF)CC2 [6d, 5-Bromo-N-(4-(6,7-dimethoxy-3,4-dihydroisoquinolin-2(1H)-yl)butyl)-2-(2-(2-(2-fluoroethoxy)ethoxy)ethoxy)benzamide] | higher tumor uptake compared to the non-pegylated analog |  |  |
| 451 ± 56 | 6.29 ± 0.6 | 72 |  | COc1cc2c(cc1OC)CN(CCCCNC(=O)c1cc(I)ccc1OCCOCCF)CC2 [6e] |  |  |  |
| 1280 | 7.47 ± 1.2 | 171 |  | COc1cc2c(cc1OC)CN(CCCCNC(=O)c1cc(I)ccc1OCCOCCOCCF)CC2 [6f, N-(4-(6,7-dimethoxy-3,4-dihydroisoquinolin-2(1H)-yl)butyl)-2-(2-(2-(2-fluoroethoxy)ethoxy)ethoxy)-5-iodobenzamide] |  |  |  |
| 669 ± 101 | 4.67 ± 0.6 | 143 | slower rate of washout | COc1cc2c(cc1OC)CN(CCCCNC(=O)c1cc(Br)cc(OC)c1OCCOCCF)CC2 [6g, 5-bromo-N-(4-(6,7-dimethoxy-3,4-dihydroisoquinolin-2(1H)-yl)butyl)-2-(2-(2-fluoroethoxy)ethoxy)-3-methoxybenzamide] | higher tumor uptake compared to the non-pegylated analog |  |  |
| 9100 | 33 | 276 |  | COc1cc2c(cc1OC)CN(CCCCNC(=O)c1cc(Br)cc(OC)c1OCCOCCOCCF)CC2 [6h] |  |  |  |
|  |  |  |  | O=C(Cc1cccc(Br)c1)NC1CCN(Cc2ccc(F)cc2)CC1 [Yun-143, N-(4-fluorobenzyl)piperidinyl-4-(3-bromophenyl)acetamide] |  | high affinity | high affinity |
